# Laboratory results from EP4745134A1 (Jiangsu Yahong Meditech Co., Ltd., priority 2023, dated 2025).
# Tests used:
# PRMT5-MTA = PRMT5-MTA (Homo sapiens, UniProt O14744); assay: Enzymatic inhibitory activity against PRMT5-MTA (AlphaScreen); format: biochemical; settings: read-out: IC50
# Summary of the method: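 PRMT5/[…] (1 nM) was preincubated for 30 min at room temperature with 1 µM […] and 2.5 µM SAM, then exposed to compound (10-point, 3-fold from 1000 nM) for 15 min at 23 °C. Histone H4 substrate (5 nM) was added and reacted for 45 min at 23 °C. Symmetric dimethyl-R3 H4 was detected by AlphaScreen and IC50 calculated.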
# HCT116 MTAP KO cells = assay: Inhibitory activity against cell proliferation (CellTiter Glo, 6 days), HCT116 MTAP KO; format: cell-based; settings: for IC50: Homo sapiens, HCT-116, 144 h, HCT116 MTAP KO cells, 6 days, CellTiter Glo, read-out: HCT116 MTAP KO IC50; for Selectivity HCT 116-WT/ HCT116 MTAP KO: ratio of IC50 HCT116-WT / HCT116 MTAP KO
# Summary of the method: (§1)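 250 cells/well, McCoy's 5A + 10% FBS, o/n 37°C 5% CO2; cpd 8-pt 4-fold from 10000 nM, 6 d; CTG lum on day 7; IC50 vs DMSO.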
# HCT116-WT cells = assay: Inhibitory activity against cell proliferation (CellTiter Glo, 6 days), HCT116-WT; format: cell-based; settings: 144 h, HCT116-WT cells, 6 days, CellTiter Glo; read-out: HCT116-WT IC50
# Summary of the method: as §1
# Chain of PRMT5-MTA (O14744 whole entry): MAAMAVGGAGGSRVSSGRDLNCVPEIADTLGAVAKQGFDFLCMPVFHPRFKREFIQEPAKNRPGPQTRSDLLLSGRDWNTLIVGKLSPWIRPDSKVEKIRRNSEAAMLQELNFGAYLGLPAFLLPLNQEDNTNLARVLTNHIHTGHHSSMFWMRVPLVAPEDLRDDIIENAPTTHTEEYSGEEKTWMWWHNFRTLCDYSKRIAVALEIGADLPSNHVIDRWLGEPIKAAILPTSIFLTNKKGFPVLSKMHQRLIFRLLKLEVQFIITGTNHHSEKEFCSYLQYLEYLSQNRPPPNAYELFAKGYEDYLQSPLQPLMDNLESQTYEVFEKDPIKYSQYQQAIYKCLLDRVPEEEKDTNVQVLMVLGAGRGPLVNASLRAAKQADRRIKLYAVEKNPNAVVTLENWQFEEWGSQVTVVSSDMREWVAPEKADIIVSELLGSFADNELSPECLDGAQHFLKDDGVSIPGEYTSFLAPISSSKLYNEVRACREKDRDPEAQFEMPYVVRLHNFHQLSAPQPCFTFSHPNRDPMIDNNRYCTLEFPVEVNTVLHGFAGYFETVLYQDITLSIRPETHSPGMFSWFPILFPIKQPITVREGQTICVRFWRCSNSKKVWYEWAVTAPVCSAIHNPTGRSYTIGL
# Chain of PRMT5-MTA (Q9BQA1 whole entry partner): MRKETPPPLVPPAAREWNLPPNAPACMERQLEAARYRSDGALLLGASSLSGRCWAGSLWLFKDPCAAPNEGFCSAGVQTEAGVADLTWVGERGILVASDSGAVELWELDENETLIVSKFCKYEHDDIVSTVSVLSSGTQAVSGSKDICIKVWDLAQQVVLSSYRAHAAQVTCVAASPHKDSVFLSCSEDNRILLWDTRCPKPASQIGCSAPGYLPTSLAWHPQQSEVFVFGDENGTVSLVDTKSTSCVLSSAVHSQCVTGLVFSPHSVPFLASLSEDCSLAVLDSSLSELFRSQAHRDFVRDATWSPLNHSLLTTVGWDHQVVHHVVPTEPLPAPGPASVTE
SMILES,IC50 (PRMT5-MTA) [nM],IC50 (HCT116 MTAP KO cells) [nM],Selectivity HCT 116-WT/ HCT116 MTAP KO (HCT116 MTAP KO cells),IC50 (HCT116-WT cells) [nM]
"Cc1cc2cc(C(=O)N(Cc3ccc(C(C)O)cn3)N(C)c3ncccn3)ccc2nc1N (stereo not drawn) [Example 295, 2-amino-N-((5-(1-hydroxyethyl)pyridin-2-yl)methyl)-N',3-dimethyl-N-(pyrimidin-2-yl) quinoline-6-carbohydrazide]",2,399,12.38,4940
"CN(c1ncccn1)N(Cc1ccc(C(F)(F)F)cn1)C(=O)c1ccc2nc(N)c(Br)cc2c1 [Example 303, 2-amino-3-bromo-N'-methyl-N'-(pyrimidin-2-yl)-N-((5-(trifluoromethyl)pyridin-2-yl)methyl)quinoline-6-carbohydrazide]",3,110,27.20,2990
"C=Cc1cc2cc(C(=O)N(Cc3ccc(C(F)(F)F)cn3)N(C)c3ncccn3)ccc2nc1N [Example 304, 2-amino-N'-methyl-N'-(pyrimidin-2-yl)-N-((5-(trifluoromethyl)pyridin-2-yl)methyl)-3-v inylquinoline-6-carbohydrazide]",3.9,204,17.81,3630
"CCc1cc2cc(C(=O)N(Cc3ccc(C(F)(F)F)cn3)N(C)c3ncccn3)ccc2nc1N [Example 305, 2-amino-3-ethyl-N'-methyl-N'-(pyrimidin-2-yl)-iN-((5-(trifluoromethyl)pyridin-2-yl)methyl)quinoline-6-carbohydrazide]",2.3,85,19.60,1670
"Cc1cc2cc(C(=O)N(Cc3ccc(C(F)(F)F)cn3)N(C)c3ncccn3)ncc2nc1N [Example 306, 2-amino-N',3-dimethyl-N'-(pyrimidin-2-yl)-N-((5-(trifluoromethyl)pyridin-2-yl)methyl) -1,7-naphthyridine-6-carbohydrazide]",4.9,319,12.15,3880
"CN(c1ncccn1)N(Cc1ccc(C(F)(F)F)cn1)C(=O)c1ccc2nc(N)c3cnccc3c2c1 [Example 308, 5-amino-N'-methyl-N'-(pyrimidin-2-yl)-N-((5-(trifluoromethyl)pyridin-2-yl)methyl)ben zo[c][2,7]naphthyridine-9-carbohydrazide]",1.1,11,19.64,216
"[2H]C([2H])([2H])c1cc2cc(C(=O)N(Cc3ccc(C(F)(F)F)cn3)N(C)c3ncccn3)ccc2nc1N [Example 310, 2-amino-N'-methyl-3-(methyl-d3)-N'-(pyrimidin-2-yl)-N-((5-(trifluoromethyl)pyridin-2-yl)methyl)quinoline-6-carbohydrazide]",1.8,33,34.09,1120
"[2H]C([2H])([2H])c1cc2cc(C(=O)N(Cc3ccc(C(F)(F)F)cn3)N(c3ncccn3)C([2H])([2H])[2H])ccc2nc1N [Example 311, 2-amino-N',3-bis(methyl-D3)-N'-(pyrimidin-2-yl)-N-((5-(trifluoromethyl)pyridin-2-yl)methyl)quinoline-6-carbohydrazide]",3,59,29.78,1760
"[2H]C([2H])([2H])c1cc2cc(C(=O)N(Cc3ccc(C(F)(F)F)cn3)N(C)c3nccc4nccnc34)ccc2nc1N [Example 313, 2-amino-N'-methyl-3-(methyl-d3)-N'-(pyrido[3,4-b]pyrazin-5-yl)-N-((5-(trifluoromethyl)pyridin-2-yl)methyl)quinoline-6-c arbohydrazide]",4.2,38,13.37,508
"[2H]C([2H])([2H])c1cc2cc(C(=O)N(Cc3ccc(C(F)(F)F)cn3)N(c3ncccn3)C3CC3)ccc2nc1N [Example 314, 2-amino-N'-cyclopropyl-3-(methyl-D3)-N'-(pyrimidin-2-yl)-N-((5-(trifluoromethyl)pyridin-2-yl)methyl)quinoline-6-carbo hydrazide]",4.7,12,23.58,283
"[2H]C([2H])([2H])c1cc2cc(C(=O)N(Cc3ccc(-c4scnc4C)cn3)N(c3ncccn3)C3CC3)ccc2nc1N [Example 316, 2-amino-N'-cyclopropyl-3-(methyl-D3)-N-((5-(4-methylthiazol-5-yl)pyridin-2-yl)methyl)-N'-(pyrimidin-2-yl)quinoline-6-c arbohydrazide]",6.8,11,19.55,215
"[2H]C([2H])([2H])c1cc2cc(C(=O)N(Cc3ccc(-c4sc(C)nc4C)cn3)N(c3ncccn3)C3CC3)ccc2nc1N [Example 317, 2-amino-N'-cyclopropyl-N-((5-(2,4-dimethylthiazol-5-yl)pyridin-2-yl)methyl)-3-(methyl-D3)-N'-(pyrimidin-2-yl)quinoline-6-carbohydrazide]",6.4,23,10.48,241
"[2H]C([2H])([2H])c1cc2cc(C(=O)N(Cc3ccc(-c4cncs4)cn3)N(C)c3ncccn3)ccc2nc1N [Example 318, 2-amino-N'-methyl-3-(methyl-D3)-N'-(pyrimidin-2-yl)-N-((5-(thiazol-5-yl)pyridin-2-yl)methyl)quinoline-6-carbohydrazide]",6.3,16,21.13,338
"Nc1nc2ccc(C(=O)N(Cc3ccc(C(F)(F)F)cn3)N(c3ncccn3)C3CC3)cc2cc1CO [Example 320, 2-amino-N'-cyclopropyl-3-(hydroxymethyl)-N'-(pyrimidin-2-yl)-N-((5-(trifluoromethyl)pyridin-2-yl)methyl)quinoline-6-carbohydrazide]",5.5,102,24.70,2520
"CN(c1ncccn1)N(Cc1ccc(-c2cnn(C(F)(F)F)c2)cn1)C(=O)c1ccc2nc(N)c(CO)cc2c1 [Example 322, 2-amino-3-(hydroxymethyl)-N'-methyl-N '-(pyrimidin-2-yl)-N-((5-(1-(trifluoromethyl)-1H-pyrazol-4-yl)pyridin-2-yl)methyl) quinoline-6-carbohydrazide]",4.4,268,16.31,4370
"CN(c1ncccn1)N(Cc1ccc(C(F)(F)F)cn1)C(=O)c1ccc2nc(N)c(CO)cc2c1 [Example 325, 2-amino-3-hydroxymethyl-N'-methyl-N'-(pyrimidin-2-yl)-N-((5-(trifluoromethyl)pyridin-2-yl)methyl)quinoline-6-carbohydrazide]",2.3,82,38.72,3180
"Cc1cc2nc(N)c3cnn(C)c3c2cc1C(=O)N1CC(C)CN1c1ncccc1F (stereo not drawn) [Example 328, (4-amino-1,7-dimethyl-1H-pyrazolo[4,3-c]quinolin-8-yl)(2-(3-fluoropyridin-2-yl)-4-methylpyrazolidin-1-yl)methanone]",6.5,38,61.63,2340
"Cc1cc2nc(N)c3cnn(C)c3c2cc1C(=O)N1CC(C)(C)CN1c1ncccc1F [Example 330, (4-amino-1,7-dimethyl-1H-pyrazolo[4,3-c]quinolin-8-yl)(2-(3-fluoropyridin-2-yl)-4,4-dimethylpyrazolidin-1-yl)methanone]",13,24,25.13,603
"Cc1cc2nc(N)c3cnn(C)c3c2cc1C(=O)N1CC(C)CN1c1cc(F)ccc1F (stereo not drawn) [Example 335, (4-amino-1,7-dimethyl-1H-pyrazolo[4,3-c]quinolin-8-yl)(2-(2,5-difluorophenyl)-4-methylpyrazolidin-1-yl)methanone]",3.3,15,42.93,644
"Cc1cc2nc(N)c3cnn(C)c3c2cc1C(=O)N1CCCN1c1ccc(C(F)(F)F)cn1 [Example 338, (4-amino-1,7-dimethyl-1H-pyrazolo[4,3-c]quinolin-8-yl)(2-(5-(trifluoromethyl)pyridin-2-yl)pyrazolidin-1-yl)methanone]",2.8,153,24.64,3770
"Cn1ncc2c(N)nc3cc(F)c(C(=O)N4CCCN4c4ccc(C(F)(F)F)cn4)cc3c21 [Example 340, (4-amino-7-fluoro-1-methyl-1H-pyrazolo [4,3-c]quinolin-8-yl)(2-(5-(trifluoromethyl)pyridin-2-yl)pyrazolidin-1-yl)methanone]",4.2,295,,> 10000
"Cc1cc2nc(N)c3cnn(C)c3c2cc1C(=O)N1CCCN1c1ncccc1F [Example 342, (4-amino-1,7-dimethyl-1H-pyrazolo[4,3-c]quinolin-8-yl)(2-(3-fluoropyridin-2-yl)pyrazolidin-1-yl)methanone]",3.8,100,67.95,6800
